Literature values in patent publication US20230233498A1, “COMPOSITIONS AND METHODS FOR THE TREATMENT OF COVID-19” (PROTHIONE, LLC, priority 2020, published 2023).
Read-outs that look alike come from different tables or passages of the source.

Assays:
[1] = test system: Human Foreskin (HF) cells infected with HSV-2-strain G; conditions: 3 to 1.5 mM
[2] = test system: zinc-dependent metalloproteinases; conditions: for GP shedding: higher concentrations (25-50 mM)
[3] = test system: rotaviruses; conditions: 10 mM

Question: For `O=C(O)c1ccccn1` [picolinic acid], which “apoptosis of infected cells” value [1] is on record?
Answer: The value was “cause apoptosis of HF infected cells”.

Question: For `CNC(=O)[C@H](Cc1c[nH]c2ccccc12)NC(=O)[C@@H](CC(=O)NO)CC(C)C` [GM6001], which “inhibition of glycoprotein shedding” value ([2]; concentration of 5 mM) is on record?
Answer: Its value is “inhibitory effects were observed”.

Question: With `CNC(=O)[C@@H](NC(=O)[C@H](CC(C)C)[C@H](O)C(=O)NO)C(C)(C)C` [BB2516] as the molecule, how does the “inhibition of glycoprotein shedding” value ([2]; concentration of 0.5 mM) read?
Answer: The value was “inhibitory effects were observed”.

Question: Which GP shedding [2] does the source give for `CC(C)C[C@H](CC(=O)NO)C(=O)N[C@@H](Cc1ccc2ccccc2c1)C(=O)N[C@@H](C)C(=O)NCCN` [TAPI-I] here?
Answer: The GP shedding was “reduced GP shedding”.

Question: For `O=C(O)CN(CCN(CC(=O)O)CC(=O)O)CC(=O)O` [EDTA, ethylenediaminetetraacetic acid], which “effect on viral particles” value [3] is on record?
Answer: Its value is “non-infectious viral particles”.

Question: With `COc1ccc(S(=O)(=O)N2Cc3ccccc3C[C@@H]2C(=O)NO)cc1` [MMP-8 inhibitor I] as the molecule, how does the “inhibition of glycoprotein shedding” value ([2]; concentration of 5 mM) read?
Answer: The value was “inhibitory effects were observed”.

Question: For `COc1ccc(S(=O)(=O)N(Cc2cccnc2)[C@@H](C(=O)NO)C(C)C)cc1` [CGS-27023A], which GP shedding [2] is on record?
Answer: Its GP shedding is “reduced GP shedding”.

Question: For `COc1ccc(S(=O)(=O)N(CC(=O)NO)CC(C)C)cc1` [MMP-3 inhibitor II], which GP shedding [2] is on record?
Answer: Its GP shedding is “reduced GP shedding”.
